Source: paper PMC5931096, “A Phase I study of the novel immunomodulatory agent PG545 (pixatimod) in subjects with advanced solid tumours” (British Journal of Cancer, 2018)

Assay: Phase I dose-escalation: safety, tolerability, DLT and MTD of weekly 1-h IV infusion
Type: in vivo
Procedure: The study was an open-label, multicentre, phase 1 dose-escalation study using a 3 + 3 design. The primary objective was to determine the MTD of weekly administered PG545 via IV infusion. Secondary objectives were to characterize safety, tolerability, clinical activity, PK and PD biomarkers.
Patients continued treatment until disease progression, unacceptable toxicity or withdrawal (either voluntarily or investigator-decision).
All patients were assessed for safety, those who received at least one dose of PG545 were evaluated for efficacy. Safety assessment included the incidence of all adverse events (AEs), irrespective of relationship to study drug, according to the National Cancer Institute Common Terminology Criteria for Adverse Events, version 4.0, and the incidence of patients experiencing dose modifications and/or premature discontinuation of study drug. Dose-limiting toxicities (DLTs) used to determine the MTD were defined as occurring during Cycle 1 of treatment only and related to PG545 according to investigator assessment. If no DLT occurred in the first three subjects, the next three-subject cohort was enrolled at the next highest available dose level. If a single DLT occurred, an additional three subjects was enrolled at the same dose level. Dose escalation continued until two subjects of the cohort experienced a DLT; this was defined as the toxic dose level. The dose-escalation phase was completed and MTD determined by reducing the dose to the next lowest dose compared to the toxic dose and expanding this cohort to at least 6 subjects.

[1] = 150 mg, during or 1 h post-infusion, typical
[2] = Life threatening/Fatal, Unrelated, Safety Set

SMILES: CC(C)CCC[C@@H](C)[C@H]1CC[C@H]2[C@@H]3CC[C@H]4C[C@@H](O[C@@H]5O[C@H](COS(=O)(=O)O)[C@@H](O[C@H]6O[C@H](COS(=O)(=O)O)[C@@H](O[C@H]7O[C@H](COS(=O)(=O)O)[C@@H](O[C@H]8O[C@H](COS(=O)(=O)O)[C@@H](OS(=O)(=O)O)[C@H](OS(=O)(=O)O)[C@H]8OS(=O)(=O)O)[C@H](OS(=O)(=O)O)[C@H]7OS(=O)(=O)O)[C@H](OS(=O)(=O)O)[C@H]6OS(=O)(=O)O)[C@H](OS(=O)(=O)O)[C@H]5OS(=O)(=O)O)CC[C@]4(C)[C@H]3CC[C@]12C [PG545]
- Pyrexia, treatment-related AE (100 mg, N = 6): 1 (17) n (%)
- Dose-limiting toxicities (DLTs), number (150 mg cohort, first cycle): Three
- Acute pulmonary oedema, related AE leading to discontinuation (150 mg, N = 9): 1 (11) n (%)
- Acute pulmonary oedema, related serious AE (150 mg, N = 9): 1 (11) n (%)
- Acute pulmonary oedema, related severe AE (150 mg, N = 9): 1 (11) n (%)
- Blood cholesterol increased, related severe AE (150 mg, N = 9): 1 (11) n (%)
- Blood cholesterol increased, treatment-related AE (150 mg, N = 9): 1 (11) n (%)
- Blood pressure increased, related severe AE (150 mg, N = 9): 1 (11) n (%)
- Chills, related AE leading to discontinuation (150 mg, N = 9): 0 n (%)
- Chills, related severe AE (150 mg, N = 9): 1 (11) n (%)
- Chills, treatment-related AE (150 mg, N = 9): 4 (44) n (%)
- Decreased appetite, treatment-related AE (150 mg, N = 9): 2 (22) n (%)
- Diarrhoea, treatment-related AE (150 mg, N = 9): 1 (11) n (%)
- Epistaxis, related AE leading to discontinuation (150 mg, N = 9): 1 (11) n (%)
- Epistaxis, related serious AE (150 mg, N = 9): 1 (11) n (%)
- Epistaxis, related severe AE (150 mg, N = 9): 1 (11) n (%)
- Fatigue, related severe AE (150 mg, N = 9): 0 n (%)
- Fatigue, treatment-related AE (150 mg, N = 9): 1 (11) n (%)
- Headache, treatment-related AE (150 mg, N = 9): 0 n (%)
- Hypercholesterolemia, treatment-related AE (150 mg, N = 9): 0 n (%)
- Hyperlipidaemia, related severe AE (150 mg, N = 9): 0 n (%)
- Hypertension, related AE leading to discontinuation (150 mg, N = 9): 1 (11) n (%)
- Hypertension, related serious AE (150 mg, N = 9): 1 (11) n (%)
- Hypertension, related severe AE (150 mg, N = 9): 5 (56) n (%)
- Hypertension, treatment-related AE (150 mg, N = 9): 5 (56) n (%)
- Hypovolaemia, related serious AE (150 mg, N = 9): 0 n (%)
- Infusion-related reaction, related serious AE (150 mg, N = 9): 1 (11) n (%)
- Infusion-related reaction, related severe AE (150 mg, N = 9): 1 (11) n (%)
- Infusion-related reaction, treatment-related AE (150 mg, N = 9): 5 (56) n (%)
- Injection site reaction, treatment-related AE (150 mg, N = 9): 0 n (%)
- Nausea, treatment-related AE (150 mg, N = 9): 1 (11) n (%)
- Pyrexia, related AE leading to discontinuation (150 mg, N = 9): 0 n (%)
- Pyrexia, related serious AE (150 mg, N = 9): 0 n (%)
- Pyrexia, related severe AE (150 mg, N = 9): 0 n (%)
- Pyrexia, treatment-related AE (150 mg, N = 9): 1 (11) n (%)
- Diastolic pressure during hypertension events, increase to [1]: 100 mm Hg
- Systolic pressure during hypertension events, increase to [1]: 170 mm Hg
- Blood pressure, substantial increase in one subject, to (150 mg, one subject): 200/126
- TEAE: At least one event (Life threatening/Fatal, Related, Safety Set): 0 (0.0%)
- TEAE: At least one event [2]: 5 (21.7%)
- TEAE: Death [2]: 2 (8.7%)
- TEAE: Fatigue [2]: 1 (4.3%)
- TEAE: GGT increased [2]: 3 (13.0%)
- TEAE: General disorders and administration site conditions [2]: 3 (13.0%)
- TEAE: Hyperuricaemia [2]: 1 (4.3%)
- TEAE: Investigations [2]: 3 (13.0%)
- TEAE: Metabolism and nutritional disorders [2]: 1 (4.3%)
- TEAE: Abdominal distension (Mild, Related, Safety Set): 1 (4.3%)
- TEAE: Abdominal pain lower (Mild, Related, Safety Set): 1 (4.3%)
- TEAE: Anaemia (Mild, Related, Safety Set): 1 (4.3%)
- TEAE: Asthenia (Mild, Related, Safety Set): 1 (4.3%)
- TEAE: At least one event (Mild, Related, Safety Set): 16 (70.0%)
- TEAE: Back pain (Mild, Related, Safety Set): 1 (4.3%)
- TEAE: Blood ALP increased (Mild, Related, Safety Set): 1 (4.3%)
- TEAE: Blood and lymphatic system disorders (Mild, Related, Safety Set): 1 (4.3%)
- TEAE: Blood cholesterol increased (Mild, Related, Safety Set): 1 (4.3%)
- TEAE: Blood triglycerides increased (Mild, Related, Safety Set): 1 (4.3%)
- TEAE: Chills (Mild, Related, Safety Set): 2 (8.7%)
- TEAE: Constipation (Mild, Related, Safety Set): 1 (4.3%)
- TEAE: Cough (Mild, Related, Safety Set): 1 (4.3%)
- TEAE: Decreased appetite (Mild, Related, Safety Set): 4 (17.4%)
- TEAE: Diarrhoea (Mild, Related, Safety Set): 4 (17.5%)
- TEAE: Diplopia (Mild, Related, Safety Set): 1 (4.3%)
- TEAE: Dizziness (Mild, Related, Safety Set): 1 (4.3%)
- TEAE: Dysgeusia (Mild, Related, Safety Set): 1 (4.3%)
- TEAE: Dyspepsia (Mild, Related, Safety Set): 1 (4.3%)
- TEAE: Eye disorders (Mild, Related, Safety Set): 1 (4.3%)
- TEAE: Fall (Mild, Related, Safety Set): 1 (4.3%)
- TEAE: Fatigue (Mild, Related, Safety Set): 1 (4.3%)
- TEAE: Gastrointestinal disorders (Mild, Related, Safety Set): 8 (34.8%)
- TEAE: General disorders and administration site conditions (Mild, Related, Safety Set): 11 (47.8%)
- TEAE: Headache (Mild, Related, Safety Set): 2 (8.7%)
- TEAE: Hypercholesterolaemia (Mild, Related, Safety Set): 1 (4.3%)
- TEAE: Hypovolaemia (Mild, Related, Safety Set): 1 (4.3%)
- TEAE: Infusion related reaction (Mild, Related, Safety Set): 1 (4.3%)
- TEAE: Injection site reaction (Mild, Related, Safety Set): 2 (8.7%)
- TEAE: Injury, poisoning and procedural complications (Mild, Related, Safety Set): 2 (8.7%)
- TEAE: Investigations (Mild, Related, Safety Set): 3 (13.0%)
- TEAE: Low density lipoprotein increased (Mild, Related, Safety Set): 1 (4.3%)
- TEAE: Malaise (Mild, Related, Safety Set): 1 (4.3%)
- TEAE: Metabolism and nutritional disorders (Mild, Related, Safety Set): 5 (21.7%)
- TEAE: Musculoskeletal and connective tissue disorders (Mild, Related, Safety Set): 2 (8.7%)
- TEAE: Musculoskeletal pain (Mild, Related, Safety Set): 1 (4.3%)
- TEAE: Nausea (Mild, Related, Safety Set): 4 (17.5%)
- TEAE: Nervous system disorders (Mild, Related, Safety Set): 3 (13.0%)
- TEAE: Oxygen saturation decreased (Mild, Related, Safety Set): 1 (4.3%)
- TEAE: Peripheral coldness (Mild, Related, Safety Set): 1 (4.3%)
- TEAE: Pyrexia (Mild, Related, Safety Set): 5 (21.7%)
- TEAE: Rash (Mild, Related, Safety Set): 1 (4.3%)
- TEAE: Rash erythematous (Mild, Related, Safety Set): 1 (4.3%)
- TEAE: Respiratory, thoracic and mediastinal disorders (Mild, Related, Safety Set): 1 (4.3%)
- TEAE: Skin and subcutaneous tissue disorders (Mild, Related, Safety Set): 2 (8.7%)
- TEAE: Vascular disorders (Mild, Related, Safety Set): 1 (4.3%)
- TEAE: Abdominal distension (Mild, Unrelated, Safety Set): 1 (4.3%)
- TEAE: Abdominal pain (Mild, Unrelated, Safety Set): 2 (8.7%)
- TEAE: Abdominal pain upper (Mild, Unrelated, Safety Set): 1 (4.3%)
- TEAE: Anxiety (Mild, Unrelated, Safety Set): 2 (8.7%)
- TEAE: Ascites (Mild, Unrelated, Safety Set): 1 (4.3%)
- TEAE: Back pain (Mild, Unrelated, Safety Set): 2 (8.7%)
- TEAE: Blood ALP increased (Mild, Unrelated, Safety Set): 1 (4.3%)
